Measured values as given in patent US20130065818A1, “Arylamide Compounds And Compositions And Uses Thereof” (POLYMEDIX, priority 2006, published 2013).
Values after ≈ are worked out from the molar mass of the structure shown. Read-outs that look alike come from different tables or passages of the source.

How the values were obtained:
[1] = tested on: Staphylococcus aureus fluoroquinolone-resistant; test: MIC, 25 ocular isolates, broth microdilution (Example 8); assay type: cell-based
Method: (§1) • Mueller-Hinton Broth in tubes was inoculated with 25 ocular isolates of Staphylococcus aureus fluoroquinolone-susceptible, Staphylococcus aureus fluoroquinolone-resistant, Staphylococcus epidermidis (Coagulase-negative Staphylococcus) fluoroquinolone-susceptible, Staphylococcus epidermidis (Coagulase-negative Staphylococcus) fluoroquinolone-resistant, Pseudomonas aeruginosa and Serratia marcescens, plus two controls (Staphylococcus aureus and E. coli) and incubated at 37° C. overnight on a shaker set at 250 rpm.
(§2) On the day of testing, a 640 μg/ml (1280 μg/ml for Serratia marcescens and Pseudomonas aeruginosa) concentration was prepared from a 1% stock solution in 0.01% acetic acid, 0.2% BSA in polypropylene tubes.
(§3) Serial doubling dilutions in 0.01% acetic acid, 0.2% BSA in 96 well polypropylene plates, which are used as reservoirs for the inoculation of the test plates, were carried out to obtain serial dilutions of test agents at 10 times the required test concentrations: 640, 320, 160, 80, 40, 20, 10, 5, 2.5, 1.25, and 0.625 μg/ml (1280, 640, 320, 160, 80, 40, 20, 10, 5, 2.5, and 1.25 μg/ml for Serratia marcescens and Pseudomonas aeruginosa).
(§4) Ten μl of diluted 10×test agents was added to each well of one row of the 96 well polypropylene plates from column 2 to column 12 (column 1 is a control for bacteria alone, with no peptide). Test agent concentrations in columns 2-12 were as follows: 64, 32, 16, 8, 4, 2, 1, 0.5, 0.25, 0.125, and 0.0625 μg/ml (128, 64, 32, 16, 8, 4, 2, 1, 0.5, 0.25, and 0.125 μg/ml for Serratia marcescens and Pseudomonas aeruginosa). The same peptide was in each of the 8 rows. One plate contained dilutions of one test agent and 8 bacterial isolates.
(§5) On the day of testing, the overnight bacterial broth cultures of Staphylococcus aureus fluoroquinolone-susceptible, Staphylococcus aureus fluoroquinolone-resistant, Staphylococcus epidermidis (Coagulase-negative Staphylococcus) fluoroquinolone-susceptible, Staphylococcus epidermidis (Coagulase-negative Staphylococcus) fluoroquinolone-resistant, Serratia marcescens, and Pseudomonas aeruginosa, plus two controls (Staphylococcus aureus and E. coli) were diluted in 5 ml of trypticase soy broth to yield turbidity equal to a 0.5 McFarland standard. The final inoculum for MIC testing for Staphylococcus aureus fluoroquinolone-susceptible, Staphylococcus aureus fluoroquinolone-resistant, Staphylococcus epidermidis (Coagulase-negative Staphylococcus) fluoroquinolone-susceptible, Staphylococcus epidermidis (Coagulase-negative Staphylococcus) fluoroquinolone-resistant, Serratia marcescens, and Pseudomonas aeruginosa was achieved by placing 0.05 ml of the turbidity adjusted sample to 5 ml of Mueller-Hinton broth.
(§6) Ninety μl of the bacterial suspensions was dispensed in each well from column 1 to column 12. Each bacterial isolate was placed in one row of a 96 well polypropylene plate containing the test agents. The plates were placed on shaker at 15 minutes at room temperature, and then incubated at 37° C. overnight. MICs were determined visually as the lowest concentration of drug that inhibits visible bacterial growth.

[2] = tested on: Staphylococcus epidermidis (Coagulase-negative Staphylococcus) fluoroquinolone-susceptible; test: as above; assay type: cell-based
Method: as §1, §2, §3, §4, §5, §6

Compound: N=C(N)NCCCCC(=O)Nc1cc(C(F)(F)F)cc(NC(=O)c2cc(C(=O)Nc3cc(C(F)(F)F)cc(NC(=O)CCCCNC(=N)N)c3O[C@@H]3CCNC3)ncn2)c1O[C@@H]1CCNC1 [Oligomer 4]
- MIC50 ([1]; 25 isolates, Row 13): 0.25 µg/mL (≈ 0.267 µM)
- MIC90 ([1]; 25 isolates, Row 22): 0.5 µg/mL (≈ 0.534 µM)
- Range of MICs ([1]; 25 isolates, Summary of Results): 0.125 to 1.0 µg/mL
- MIC ([1]; Staphylococcus aureus, 25 ocular isolates, read-out: Median MIC): ≤ 0.25 µg/mL
- MIC ([1]; Staphylococcus aureus, isolate 1—E504, read-out: MIC): 0.25 µg/mL (≈ 0.267 µM)
- MIC ([1]; Staphylococcus aureus, isolate 2—E475, read-out: MIC): 0.25 µg/mL (≈ 0.267 µM)
- MIC ([1]; Staphylococcus aureus, isolate 3—E442, read-out: MIC): 0.25 µg/mL (≈ 0.267 µM)
- MIC ([1]; Staphylococcus aureus, isolate 4—E427, read-out: MIC): 0.5 µg/mL (≈ 0.534 µM)
- MIC ([1]; Staphylococcus aureus, isolate 5—E425, read-out: MIC): 0.25 µg/mL (≈ 0.267 µM)
- MIC ([1]; Staphylococcus aureus, isolate 6—E424, read-out: MIC): 0.25 µg/mL (≈ 0.267 µM)
- MIC ([1]; Staphylococcus aureus, isolate 7—E417, read-out: MIC): 1 µg/mL (≈ 1.07 µM)
- MIC ([1]; Staphylococcus aureus, isolate 8—E407, read-out: MIC): 0.25 µg/mL (≈ 0.267 µM)
- MIC ([1]; Staphylococcus aureus, isolate 9—E401, read-out: MIC): 0.25 µg/mL (≈ 0.267 µM)
- MIC ([1]; Staphylococcus aureus, isolate 10—K1659, read-out: MIC): 0.25 µg/mL (≈ 0.267 µM)
- MIC ([1]; Staphylococcus aureus, isolate 11—E96, read-out: MIC): 0.125 µg/mL (≈ 0.133 µM)
- MIC ([1]; Staphylococcus aureus, isolate 12—E379, read-out: MIC): 0.5 µg/mL (≈ 0.534 µM)
- MIC ([1]; Staphylococcus aureus, isolate 13—E369, read-out: MIC): 0.125 µg/mL (≈ 0.133 µM)
- MIC ([1]; Staphylococcus aureus, isolate 14—E361, read-out: MIC): 0.25 µg/mL (≈ 0.267 µM)
- MIC ([1]; Staphylococcus aureus, isolate 15—E339, read-out: MIC): 0.25 µg/mL (≈ 0.267 µM)
- MIC ([1]; Staphylococcus aureus, isolate 16—E333, read-out: MIC): 0.25 µg/mL (≈ 0.267 µM)
- MIC ([1]; Staphylococcus aureus, isolate 17—E332, read-out: MIC): 0.25 µg/mL (≈ 0.267 µM)
- MIC ([1]; Staphylococcus aureus, isolate 18—E327, read-out: MIC): 0.5 µg/mL (≈ 0.534 µM)
- MIC ([1]; Staphylococcus aureus, isolate 19—E325, read-out: MIC): 0.5 µg/mL (≈ 0.534 µM)
- MIC ([1]; Staphylococcus aureus, isolate 20—K950, read-out: MIC): 0.5 µg/mL (≈ 0.534 µM)
- MIC ([1]; Staphylococcus aureus, isolate 21—K839, read-out: MIC): 0.25 µg/mL (≈ 0.267 µM)
- MIC ([1]; Staphylococcus aureus, isolate 22—K1679, read-out: MIC): 0.25 µg/mL (≈ 0.267 µM)
- MIC ([1]; Staphylococcus aureus, isolate 23—K1677, read-out: MIC): 0.25 µg/mL (≈ 0.267 µM)
- MIC ([1]; Staphylococcus aureus, isolate 24—K1672, read-out: MIC): 0.25 µg/mL (≈ 0.267 µM)
- MIC ([1]; Staphylococcus aureus, isolate 25—K1670, read-out: MIC): 0.25 µg/mL (≈ 0.267 µM)
- MIC ([1]; Staphylococcus aureus, n=25 per group, read-out: Median MIC): 0.25 µg/mL (≈ 0.267 µM)
- MIC50 ([1]; Staphylococcus aureus, 25 isolates, Summary of Results, read-out: MIC50): 0.25 µg/mL (≈ 0.267 µM)
- MIC90 ([1]; Staphylococcus aureus, 25 isolates, Summary of Results, read-out: MIC90): 0.5 µg/mL (≈ 0.534 µM)
- MIC ([1]; Staphylococcus aureus, 25 isolates, Summary of Results, read-out: Median MIC): 0.25 µg/mL (≈ 0.267 µM)
- MIC50 ([1]; n=25 per group): 0.25 µg/mL (≈ 0.267 µM)
- MIC90 ([1]; n=25 per group): 0.5 µg/mL (≈ 0.534 µM)
- Range of MICs ([1]; n=25 per group): 0.125 to 1.0 µg/mL
- MIC, sorted list for MIC50 and MIC90 Determinations (QSSE-A) ([2]; 25 isolates sorted ascending, Row 1-25, <0.0625 was Replaced with 0.03125): 0.25 µg/mL
- MIC50 ([2]; 25 isolates, Row 13): 0.125 µg/mL (≈ 0.133 µM)
- MIC90 ([2]; 25 isolates, Row 22): 0.25 µg/mL (≈ 0.267 µM)
- Range of MICs ([2]; 25 isolates, Summary of Results, <0.0625 was Replaced with 0.03125): 0.03125 to 0.25 µg/mL
- MIC ([2]; Staphylococcus epidermidis, 25 ocular isolates, read-out: Median MIC): ≤ 0.25 µg/mL
- MIC ([2]; Staphylococcus epidermidis, isolate 1—E511, read-out: MIC): 0.25 µg/mL (≈ 0.267 µM)
- MIC ([2]; Staphylococcus epidermidis, isolate 2—E489, read-out: MIC): 0.125 µg/mL (≈ 0.133 µM)
- MIC ([2]; Staphylococcus epidermidis, isolate 3—E491, read-out: MIC): 0.125 µg/mL (≈ 0.133 µM)
- MIC ([2]; Staphylococcus epidermidis, isolate 4—E476, read-out: MIC): 0.25 µg/mL (≈ 0.267 µM)
- MIC ([2]; Staphylococcus epidermidis, isolate 5—E473, read-out: MIC): 0.25 µg/mL (≈ 0.267 µM)
- MIC ([2]; Staphylococcus epidermidis, isolate 6—E462, read-out: MIC): 0.125 µg/mL (≈ 0.133 µM)
- MIC ([2]; Staphylococcus epidermidis, isolate 7—E460, read-out: MIC): 0.125 µg/mL (≈ 0.133 µM)
- MIC ([2]; Staphylococcus epidermidis, isolate 8—E453, read-out: MIC): 0.125 µg/mL (≈ 0.133 µM)
- MIC ([2]; Staphylococcus epidermidis, isolate 9—E448, read-out: MIC): 0.125 µg/mL (≈ 0.133 µM)
- MIC ([2]; Staphylococcus epidermidis, isolate 10—E443, read-out: MIC): < 0.0625 µg/mL
- MIC ([2]; Staphylococcus epidermidis, isolate 11—E441, read-out: MIC): < 0.0625 µg/mL
- MIC ([2]; Staphylococcus epidermidis, isolate 12—E438, read-out: MIC): 0.125 µg/mL (≈ 0.133 µM)
- MIC ([2]; Staphylococcus epidermidis, isolate 13—E437, read-out: MIC): 0.125 µg/mL (≈ 0.133 µM)
- MIC ([2]; Staphylococcus epidermidis, isolate 14—E434, read-out: MIC): 0.125 µg/mL (≈ 0.133 µM)
- MIC ([2]; Staphylococcus epidermidis, isolate 15—E433, read-out: MIC): 0.125 µg/mL (≈ 0.133 µM)
- MIC ([2]; Staphylococcus epidermidis, isolate 16—E430, read-out: MIC): < 0.0625 µg/mL
- MIC ([2]; Staphylococcus epidermidis, isolate 17—E420, read-out: MIC): 0.125 µg/mL (≈ 0.133 µM)
- MIC ([2]; Staphylococcus epidermidis, isolate 18—E419, read-out: MIC): 0.125 µg/mL (≈ 0.133 µM)
- MIC ([2]; Staphylococcus epidermidis, isolate 19—E403, read-out: MIC): 0.125 µg/mL (≈ 0.133 µM)
- MIC ([2]; Staphylococcus epidermidis, isolate 20—E394, read-out: MIC): 0.125 µg/mL (≈ 0.133 µM)
- MIC ([2]; Staphylococcus epidermidis, isolate 21—E393, read-out: MIC): 0.125 µg/mL (≈ 0.133 µM)
- MIC ([2]; Staphylococcus epidermidis, isolate 22—E328, read-out: MIC): 0.25 µg/mL (≈ 0.267 µM)
- MIC ([2]; Staphylococcus epidermidis, isolate 23—E382, read-out: MIC): 0.125 µg/mL (≈ 0.133 µM)
- MIC ([2]; Staphylococcus epidermidis, isolate 24—E381, read-out: MIC): 0.125 µg/mL (≈ 0.133 µM)
- MIC ([2]; Staphylococcus epidermidis, isolate 25—E372, read-out: MIC): 0.25 µg/mL (≈ 0.267 µM)
- MIC ([2]; Staphylococcus epidermidis, n=25 per group, read-out: Median MIC): 0.125 µg/mL (≈ 0.133 µM)
- MIC50 ([2]; Staphylococcus epidermidis, 25 isolates, Summary of Results, read-out: MIC50): 0.125 µg/mL (≈ 0.133 µM)
- MIC90 ([2]; Staphylococcus epidermidis, 25 isolates, Summary of Results, read-out: MIC90): 0.25 µg/mL (≈ 0.267 µM)
- MIC ([2]; Staphylococcus epidermidis, 25 isolates, Summary of Results, read-out: Median MIC): 0.125 µg/mL (≈ 0.133 µM)
- MIC50 ([2]; n=25 per group): 0.125 µg/mL (≈ 0.133 µM)
- MIC90 ([2]; n=25 per group): 0.25 µg/mL (≈ 0.267 µM)
- Range of MICs ([2]; n=25 per group): 0.03125 to 0.25 µg/mL
